From patent US20250295615A1 (BOARD OF REGENTS, THE UNIVERSITY OF TEXAS SYSTEM, priority 2021, published 2025)

Experiments:
[1] = human, in vivo
Protocol: (§1) Study Outcomes: Safety was compared to evaluate the number, frequency, duration, and relation of toxicity events to CURC and UA, as defined by the Common Terminology Criteria for Adverse Events (CTCAE) v 4.03. […] We also investigated the impact on the microbiome in a paired analysis for change and overall theme of imputed bacterial function.
Measurement of Compounds: The compounds and their metabolites were measured using an UHPLC-MS/MS system performed on a Hybrid quadrupole-Orbitrap mass spectrometer (Q Exactive, Thermo Scientific, Waltham, MA, USA) hyphenated with a Thermo Scientific Vanquish Flex ultrahigh-pressure liquid chromatography (UHPLC) system via electrospray ionization source. For the parallel reaction monitoring (PRM) scan, the resolution, auto gain control (AGC) target, and maximum injection time (IT) were set at 17500, 2e5, and 100 ms. The All-Ion Fragmentation (AIF) scan consisted of a scan range of m/z 100-750 with NCE 10. The resolution, AGC target, and maximum IT for the AIF scan were set at 70000, 3e6, and 200 ms, respectively.
Statistical Analysis: Demographics between groups was compared using the Fischer Exact test for categorical variables and the Student's t-test for continuous variables. Safety laboratory values were analyzed using a paired t-test for differences, with significance set at p<0.05. ANOVA was used to compare plasma levels of UA, CURC, and CURC metabolites. Least significant difference (LSD) was used as the post hoc analysis test to compare values between groups.

[2] = Phase 1 clinical trial, safety laboratory values (week 2 minus baseline); format: in vivo, human
Source text: Laboratory Safety values. We perform laboratory analysis at baseline and at the end of the two-week study. We then subtracted the values (week 2-baseline) to obtain the differences for each participant.

[3] = human, in vivo; remark: listed apart in the source
Source text: Population and Recruitment: We recruited healthy men enrolled in the SABOR study, which is a community-based prostate cancer screening cohort. The San Antonio Biomarkers of Risk (SABOR) study cohort was funded by the National Cancer Institute Early Detection Research Network-sponsored Clinical and Epidemiologic Validation Center since its nascent enrollment in 2000 (IRB #HSC20000030H). A separate IRB was approved for the phase 1 trial (IRB #HSC20190940H). Subjects had no prior diagnosis of prostate cancer at the time of enrollment and varied prostate cancer risk profiles. We used the local UT Health San Antonio Data Safety and Monitoring Board (DSMB).
as §1
Common Terminology Criteria for Adverse Events (CTCAE) v 4.03. […] A creatinine rise would indicate kidney dysfunction.

[4] = test system: prostate tumor; conditions: 7-year period, men taking the drug daily; cited from earlier work
[5] = test system: prostate cancer; conditions: mouse, in vivo; cited from earlier work
[6] = week 2 minus baseline, median (IQR), n = 6

Row | SMILES | Plasma levels in words (FIG. 2) [1] | Difference in ALT [2, 6] | Difference in AST [2, 6] | Difference in Albumin [2, 6] | Difference in Alkaline Phosphatase [2, 6] | Difference in Bicarbonate [2, 6] | Difference in Bilirubin [2, 6] | Difference in Calcium [2, 6] | Difference in Chloride [2, 6] | Difference in Creatinine [2, 6] | Difference in Glomerular Filtration Rate (GFR) [2, 6] | Difference in Hematocrit [2, 6] | Difference in Hemoglobin [2, 6] | Difference in Platelets [2, 6] | Difference in Sodium [2, 6] | further results
1 | COc1cc(/C=C/C(=O)CC(=O)/C=C/c2ccc(O)c(OC)c2)ccc1O [Curcumin, curcumin] | Minimal amounts of the parent curcumin compound and large amounts of curcumin glucuronide | −1.0 (−3.25 to 0.0) | 2.0 (−2.0 to 3.3) | 0.05 (−0.05 to 0.2) | −2.0 (−5.5 to 9.3) | −1.5 (−4.3 to 0.0) | −0.1 (−0.3 to 0.0) | 0.2 (−0.15 to 0.32) | −0.5 (−1.3 to 0.8) | 0.07 (−0 07 to 0.16) | −5.5 (−12.0 to 4.5) | 0.25 (−1.45 to 2.35) | 0.20 (−0.30 to 0.55) | 7.0 (−5 to 31.5) | 0.0 (−1.5 to 1.0) | GFR after 2 weeks, individual participant ([2]; curcumin arm participant baseline 45, CurcUA participant baseline 76): 46; Difference in White blood cell (WBC) [2, 6]: 0.15 (−0.43 to 0.68); Relationship To Study Treatment [3]: Unlikely
2 | CC(C)(C)NC(=O)[C@H]1CC[C@H]2[C@@H]3CC[C@H]4NC(=O)C=C[C@]4(C)[C@H]3CC[C@]12C [Finasteride] |  |  |  |  |  |  |  |  |  |  |  |  |  |  |  | Reduction in prostate tumor prevalence [4]: 24.8%
3 | C[C@H]1[C@H](C)CC[C@]2(C(=O)O)CC[C@]3(C)C(=CC[C@@H]4[C@@]5(C)CC[C@H](O)C(C)(C)[C@@H]5CC[C@]43C)[C@H]12 [Ursolic Acid, ursolic acid] | modest absorption of ursolic acid | 1.5 (1.0 to 12.8) | 2.0 (−1.3 to 3.3) | 0.0 (−0.1 to 0.2) | 2.5 (−2.5 to 5.0) | 1.0 (−1.5 to 3.0) | 0.0 (−0.08 to 0.15) | 0.03 (−0.05 to 0.48) | −1.0 (−2.75 to 1.75) | −0.08 (−0.33 to 0.12) | −3.5 (−10.3 to 3.5) | 1.55 (−0.85 to 2.85) | 0.20 (−0.33 to 0.58) | 9.5 (2.5 to 27) | 0.5 (−1.5 to 2.25) | Median plasma values of CURC and its metabolites ([1]; male, 14 day): 0.0 ng/mL; Effect on prostate cancer in TRAMP mice [5]: inhibited initiation, progression, and metastasis of prostate cancer
